In patent US9573899B2, “USP7 inhibitor compounds and methods of use” (Genentech, Inc., priority 2015, dated 2017):

biological target: T1, USP7, full-length, native C-Terminus (Homo sapiens, UniProt Q93009); assay: Biochemical USP7 assay with Ubiquitin-Rho110 substrate (USP7_Ub-Rho110 Fluor); details: no pre-incubation; 1 hour reaction at room temperature; read-out: USP7 Ub-Rho110 Fluor (IC50)
T1 construct: USP7, full-length, native C-Terminus, 0.2 nM
Protocol: (§1) Biochemical USP7 assays using Ubiquitin-Rho110 as a substrate: The final assay conditions were as follows: The Reaction Buffer consisted of: 50 mM Tris (pH 7.5), 0.01% (v/v) Triton X-100, 2.5 mM Dithiothreitol, 0.1% (w/v) bovine gamma globulin (Sigma cat #G5009-25G); USP7, full-length, native C-Terminus, 0.2 nM; the substrate, Ubiquitin-Rho110 (Boston Biochem cat #U-555), 1 uM. Reactions were carried out for 1 hour at room temperature, in black 20 μL volume polystyrene ProxiPlate 384 F Plus® (PerkinElmer cat #6008260).
(§2) Test compounds, including a control USP7 inhibitor (Ub-aldehyde, Boston Biochem cat #U-201) were serially diluted in DMSO, in 384 well clear V-bottom polypropylene plates (Greiner cat #781280). Compounds in DMSO were diluted 10-fold into Reaction Buffer, to achieve 3-fold the final desired concentration. The substrate, Ubiquitin-Rho110 (Boston Biochem cat #U-555), was prepared at 3 μM (3-fold the final concentration) and 5 ul was dispensed into the reaction plate. 5 ul of the compounds (diluted in Reaction Buffer at 3-fold the final concentration) were transferred to the reaction plate. 5 ul of 0.6 nM USP7 (diluted in Reaction Buffer at 3-fold the final concentration) was transferred to the reaction plate to initiate the reaction. After 1 hour incubation at room temperature the reaction was quenched by the addition of 5 ul of 400 mM acetic acid. The enzymatic product was measured by quantifying the fluorescence signal of cleaved Rhodamine-110 using excitation at 485 nm and emission at 535 nm. When pre-incubation of USP7 with compounds was required, the order of addition of reagents was modified to pre-mix the compounds with USP7 (with a 1 hour incubation period), prior to the addition of the substrate and the initiation of the reaction period. Percentage inhibition values were calculated relative to a no enzyme control and a uninhibited enzyme control. Curve fitting and IC50 calculations were carried out using Genedata Screener software.

T1 sequence (Q93009 whole entry): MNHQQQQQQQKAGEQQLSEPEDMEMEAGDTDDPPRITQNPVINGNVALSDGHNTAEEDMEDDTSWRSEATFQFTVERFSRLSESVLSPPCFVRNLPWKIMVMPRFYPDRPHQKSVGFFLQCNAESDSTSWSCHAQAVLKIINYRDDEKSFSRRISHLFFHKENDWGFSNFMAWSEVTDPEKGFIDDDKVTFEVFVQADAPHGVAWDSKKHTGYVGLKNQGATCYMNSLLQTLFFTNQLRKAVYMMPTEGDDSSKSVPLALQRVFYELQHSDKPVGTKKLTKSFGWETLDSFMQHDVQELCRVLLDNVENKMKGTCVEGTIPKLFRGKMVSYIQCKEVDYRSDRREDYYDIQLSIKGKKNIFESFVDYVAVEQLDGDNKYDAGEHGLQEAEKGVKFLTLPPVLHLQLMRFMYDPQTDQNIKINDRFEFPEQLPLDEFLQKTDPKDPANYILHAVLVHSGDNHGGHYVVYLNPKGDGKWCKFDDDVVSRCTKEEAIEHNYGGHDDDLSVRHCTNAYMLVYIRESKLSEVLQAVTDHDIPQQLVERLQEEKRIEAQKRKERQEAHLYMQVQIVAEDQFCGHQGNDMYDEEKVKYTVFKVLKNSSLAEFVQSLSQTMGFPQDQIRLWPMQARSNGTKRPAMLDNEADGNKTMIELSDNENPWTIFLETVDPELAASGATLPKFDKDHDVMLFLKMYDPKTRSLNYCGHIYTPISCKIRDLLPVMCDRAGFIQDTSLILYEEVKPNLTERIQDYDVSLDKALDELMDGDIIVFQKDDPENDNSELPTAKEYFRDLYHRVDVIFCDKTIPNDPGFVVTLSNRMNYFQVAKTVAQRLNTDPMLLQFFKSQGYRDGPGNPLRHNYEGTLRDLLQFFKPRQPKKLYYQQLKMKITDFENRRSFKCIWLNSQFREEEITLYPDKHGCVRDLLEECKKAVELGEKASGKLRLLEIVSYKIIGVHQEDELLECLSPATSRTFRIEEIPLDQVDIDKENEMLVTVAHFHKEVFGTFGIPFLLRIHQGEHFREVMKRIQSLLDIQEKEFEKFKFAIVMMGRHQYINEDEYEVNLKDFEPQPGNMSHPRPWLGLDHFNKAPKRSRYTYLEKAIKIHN

| IC50 [µM] | Structure (SMILES) |
| --- | --- |
| 45 | CCc1c(-c2cccc(NC(C)=O)c2)cnc(N)c1-c1ccc(O)cc1 [Compound 8, N-[3-[6-amino-4-ethyl-5-(4-hydroxyphenyl)-3-pyridyl]phenyl]acetamide] |
| 29.1 | COc1c(-c2ccc(O)cc2)cnc(N)c1-c1ccc(O)cc1 [Compound 4, 4-[6-amino-5-(4-hydroxyphenyl)-4-methoxy-3-pyridyl]phenol] |
| 4.5 | CCc1c(-c2ccc(O)cc2F)cnc(N)c1-c1ccc(O)cc1 [Compound 7, 4-[6-amino-4-ethyl-5-(4-hydroxyphenyl)-3-pyridyl]-3-fluoro-phenol] |
| 23.9 | CCc1c(-c2cccc(CN(C)C)c2)cnc(N)c1-c1ccc(O)cc1 [Compound 12, 4-[2-amino-5-[3-[(dimethylamino)methyl]phenyl]-4-ethyl-3-pyridyl]phenol] |

biological target: T1, USP7, full-length, native C-Terminus; assay: Biochemical USP7 assay with Ubiquitin-Rho110 substrate, compounds pre-incubated with USP7 (USP7_Ub-Rho preInc); details: compounds pre-mixed with USP7, 1 hour incubation, before substrate; read-out: USP7 Ub-Rho preInc (IC50)
Protocol: as §1, §2

| IC50 [µM] | Structure (SMILES) |
| --- | --- |
| 14.2 | CCc1c(-c2ccccc2F)cnc(N)c1-c1ccc(O)cc1 [Compound 50, 4-[2-amino-4-ethyl-5-(2-fluorophenyl)-3-pyridyl]phenol] |
| 44.2 | CCc1c(-c2ccc(C#N)cc2)cnc(N)c1-c1ccc(O)cc1 [Compound 51, 4-[6-amino-4-ethyl-5-(4-hydroxyphenyl)-3-pyridyl]benzonitrile] |
| 161 | CCc1c(-c2cccc(C(=O)N(C)C)c2)cnc(N)c1-c1ccc(O)cc1 [Compound 54, 3-[6-amino-4-ethyl-5-(4-hydroxyphenyl)-3-pyridyl]-N,N-dimethyl-benzamide] |
| 19.6 | CCc1c(-c2ccc(O)cc2)cnc(N)c1-c1ccc(NS(C)(=O)=O)cc1 [Compound 30, N-[4-[2-amino-4-ethyl-5-(4-hydroxyphenyl)-3-pyridyl]phenyl]methanesulfonamide] |
| 93.3 | CCc1c(-c2ccc(=O)[nH]c2)cnc(N)c1-c1ccc(O)cc1 [Compound 58, 5-[6-amino-4-ethyl-5-(4-hydroxyphenyl)-3-pyridyl]-1H-pyridin-2-one] |
| 18.6 | CCc1c(-c2ccc(O)cc2)cnc(N)c1-c1cncc(C#N)c1 [Compound 29, 5-[2-amino-4-ethyl-5-(4-hydroxyphenyl)-3-pyridyl]pyridine-3-carbonitrile] |
| 13.8 | CCc1c(-c2ccc(O)cc2)cnc(N)c1-c1ccc2cn[nH]c2c1 [Compound 93, 4-[6-amino-4-ethyl-5-(1H-indazol-6-yl)-3-pyridyl]phenol] |
| 136 | CCc1c(-c2cnc(OC)nc2)cnc(N)c1-c1ccc(O)cc1 [Compound 83, 4-[2-amino-4-ethyl-5-(2-methoxypyrimidin-5-yl)-3-pyridyl]phenol] |
| 165 | CCc1c(-c2cccc(N3CCNCC3)c2)cnc(N)c1-c1ccc(O)cc1 [Compound 42, 4-[2-amino-4-ethyl-5-(3-piperazin-1-ylphenyl)-3-pyridyl]phenol] |
| > 63.3 | CCc1c(-c2ccc(O)cc2)cnc(N)c1-c1cccc(COC)c1 [Compound 24, 4-[6-amino-4-ethyl-5-[3-(methoxymethyl)phenyl]-3-pyridyl]phenol] |
| 114 | CCc1c(-c2cccc(C(N)=O)c2)cnc(N)c1-c1ccc(O)cc1 [Compound 46, 3-[6-amino-4-ethyl-5-(4-hydroxyphenyl)-3-pyridyl]benzamide] |
| 39.2 | CCc1c(-c2ccc(C#N)nc2)cnc(N)c1-c1ccc(O)cc1 [Compound 62, 5-[6-amino-4-ethyl-5-(4-hydroxyphenyl)-3-pyridyl]pyridine-2-carbonitrile] |
| 31.2 | CCc1c(-c2ccc(C)nc2)cnc(N)c1-c1ccc(O)cc1 [Compound 35, 4-[2-amino-4-ethyl-5-(6-methyl-3-pyridyl)-3-pyridyl]phenol] |
| 70.6 | CCc1c(-c2cnn(CC(C)C)c2)cnc(N)c1-c1ccc(O)cc1 [Compound 71, 4-[2-amino-4-ethyl-5-(1-isobutylpyrazol-4-yl)-3-pyridyl]phenol] |
| > 20 | CCc1c(-c2ccc(O)cc2)cnc(N)c1-c1ccc(NC(=O)OC(C)(C)C)cc1 [Compound 21, tert-butyl N-[4-[2-amino-4-ethyl-5-(4-hydroxyphenyl)-3-pyridyl]phenyl]carbamate] |
| > 20 | CCc1c(-c2ccc(F)c(C)c2)cnc(N)c1-c1ccc(O)cc1 [Compound 79, 4-[2-amino-4-ethyl-5-(4-fluoro-3-methyl-phenyl)-3-pyridyl]phenol] |
| 17.8 | CCc1c(-c2ccccc2)cnc(N)c1-c1ccc(O)cc1 [Compound 37, 4-(2-amino-4-ethyl-5-phenyl-3-pyridyl)phenol] |
| 41 | CCc1c(-c2cccnc2)cnc(N)c1-c1ccc(O)cc1 [Compound 39, 4-[2-amino-4-ethyl-5-(3-pyridyl)-3-pyridyl]phenol] |
| 18.3 | CCc1c(-c2cccc(CC#N)c2)cnc(N)c1-c1ccc(O)cc1 [Compound 66, 2-[3-[6-amino-4-ethyl-5-(4-hydroxyphenyl)-3-pyridyl]phenyl]acetonitrile] |

| IC50 [µM] | Structure (SMILES) |
| --- | --- |
| 69.9 | CCc1c(-c2cncnc2)cnc(N)c1-c1ccc(O)cc1 [Compound 32, 4-(2-amino-4-ethyl-5-pyrimidin-5-yl-3-pyridyl)phenol] |
| 6.8 | CCc1c(-c2ccc(O)cc2)cnc(NC)c1-c1ccc(O)cc1 [Compound 43, 4-[4-ethyl-5-(4-hydroxyphenyl)-6-(methylamino)-3-pyridyl]phenol] |
| > 20 | CCc1c(-c2ccc(O)cc2)cnc(N)c1-c1ccc(N(C)C(=O)OC(C)(C)C)cc1 [Compound 28, tert-butyl N-[4-[2-amino-4-ethyl-5-(4-hydroxyphenyl)-3-pyridyl]phenyl]-N-methyl-carbamate] |
| > 63.3 | CCc1c(-c2ccc(OC)nc2)cnc(N)c1-c1ccc(O)cc1 [Compound 68, 4-[2-amino-4-ethyl-5-(6-methoxy-3-pyridyl)-3-pyridyl]phenol] |
| 19.2 | CCc1c(-c2cccc(N)c2)cnc(N)c1-c1ccc(O)cc1 [Compound 90, 4-[2-amino-5-(3-aminophenyl)-4-ethyl-3-pyridyl]phenol] |
| 5.4 | CCc1c(-c2cccc(C#N)c2)cnc(N)c1-c1ccc(O)cc1 [Compound 49, 3-[6-amino-4-ethyl-5-(4-hydroxyphenyl)-3-pyridyl]benzonitrile] |
| 9.6 | CCc1c(-c2ccc(O)c(C#N)c2)cnc(N)c1-c1ccc(O)cc1 [Compound 94, 5-[6-amino-4-ethyl-5-(4-hydroxyphenyl)-3-pyridyl]-2-hydroxy-benzonitrile] |
| > 6.3 | CCc1c(-c2ccc(O)cc2)cnc(N)c1-c1cccc(CNC(=O)OC(C)(C)C)c1 [Compound 23, tert-butyl N-[[3-[2-amino-4-ethyl-5-(4-hydroxyphenyl)-3-pyridyl]phenyl]methyl]carbamate] |
| 7.7 | CCc1c(-c2ccc(C(=O)NC3CC3)cc2)cnc(N)c1-c1ccc(O)cc1 [Compound 65, 4-[6-amino-4-ethyl-5-(4-hydroxyphenyl)-3-pyridyl]-N-cyclopropyl-benzamide] |
| > 63.3 | CCc1c(-c2cccc(C(=O)N3CCCC3)c2)cnc(N)c1-c1ccc(O)cc1 [Compound 64, [3-[6-amino-4-ethyl-5-(4-hydroxyphenyl)-3-pyridyl]phenyl]-pyrrolidin-1-yl-methanone] |
| 47.3 | CCc1c(-c2ccnc(C)c2)cnc(N)c1-c1ccc(O)cc1 [Compound 73, 4-[2-amino-4-ethyl-5-(2-methyl-4-pyridyl)-3-pyridyl]phenol] |
| > 20 | CCc1c(-c2cccc(C)c2)cnc(N)c1-c1ccc(O)cc1 [Compound 57, 4-[2-amino-4-ethyl-5-(m-tolyl)-3-pyridyl]phenol] |
| 17.6 | CCc1c(-c2ccc(Cl)cc2)cnc(N)c1-c1ccc(O)cc1 [Compound 80, 4-[2-amino-5-(4-chlorophenyl)-4-ethyl-3-pyridyl]phenol] |
| 13.5 | CCc1c(-c2ccc3[nH]c(C)nc3c2)cnc(N)c1-c1ccc(O)cc1 [Compound 86, 4-[2-amino-4-ethyl-5-(2-methyl-1H-benzimidazol-5-yl)-3-pyridyl]phenol] |
| 18.2 | CCc1c(-c2cccc(CN3CCOCC3)c2)cnc(N)c1-c1ccc(O)cc1 [Compound 82, 4-[2-amino-4-ethyl-5-[3-(morpholinomethyl)phenyl]-3-pyridyl]phenol] |
| 18.1 | CCc1c(-c2ccc(C)cc2)cnc(N)c1-c1ccc(O)cc1 [Compound 36, 4-[2-amino-4-ethyl-5-(p-tolyl)-3-pyridyl]phenol] |
| 15.7 | CCc1c(-c2ccccc2Cl)cnc(N)c1-c1ccc(O)cc1 [Compound 78, 4-[2-amino-5-(2-chlorophenyl)-4-ethyl-3-pyridyl]phenol] |
| > 63.3 | CCc1c(-c2cccc(C(=O)NC(C)C)c2)cnc(N)c1-c1ccc(O)cc1 [Compound 69, 3-[6-amino-4-ethyl-5-(4-hydroxyphenyl)-3-pyridyl]-N-isopropyl-benzamide] |
